Our source for the IC50 values is US20250340554A1, “5-Amino-1H-Pyrrolo[3,2-b]Pyridine-2-Carboxamide Derivatives as MTA-Cooperative Inhibitors of PRMT5” (BeOne Medicines I GmbH, priority 2023, published 2025).

Structures are written as SMILES.

As a reminder, the IC50 is the concentration at which inhibition is half-maximal. Read a low IC50 as inhibition by little substance.

One experiment deals with HCT116-MTAP-KO. Nature of the experiment: Compounds cell killing in HCT116 isogenic pair (Cell Titer-Glo viability), MTAP-KO cells. To be noted: Homo sapiens, HCT-116, 144 h, 6 days, 0-10 μM compound, * = more than 50% viability inhibition at tested concentration without a full curve. The format is cell-based. The source says: (§1) HCT116 cell line was obtained from ATCC (CCL-247). It has a mutation in codon 13 of the ras proto-oncogene and can be used as a positive control for PCR assays of mutation in this codon. HCT116-MTAP-KO was knocked-out-MTAP-gene based HCT116, and one single clone was passed for this assay. HCT116-mock-RNA-KO was knocked-out-mock-gene based HCT116 with MTAP wildtype genotype. The base medium for HCT116 isogenic pair is RPMI 1640, HEPES (Gibco, 22400105). To make the complete growth medium, add the following components to the base medium: fetal bovine serum to a final concentration of 10% (Gibco, 10099-141C). The cell line was grown in a humidified 5% CO2 atmosphere at 37° C. and regularly tested for the presence of mycoplasma with MycoAlert™ PLUS Mycoplasma Detection Kit (Lonza, LT07-710).
(§2) • Seed HCT116-mock-RNA-KO (400/well) or HCT116-MTAP-KO (400/well) cells into a 96-well plate (Greiner: 655090), 100 μL/well. • Incubate at 37° C., 5% CO2, overnight. • Add 50 μL fresh growth-medium containing serial dilution of compounds for a final compound concentration of 0-10 μM to each well. • Incubate at 37° C., 5% CO2, 6 days. • The cell viability detected by Cell Titer-Glo (Promega, G7573). Add 70 μL of CellTiter-Glo® reagent in each well. • Incubate at room temperature for 10 minutes to stabilize luminescent signal. • Analyze with Microplate Reader (TECAN, SPARK) and fit IC50 using Prism® 9.
In general terms: Cellular ATP, detected with luciferase, serves as a proxy for viable cell number.

In a further experiment the test system is HCT116-mock-RNA-KO. Nature of the experiment: Compounds cell killing in HCT116 isogenic pair (Cell Titer-Glo viability), mock-RNA-KO cells (MTAP wildtype). It is filed as cell-based. To be noted: Homo sapiens, HCT-116, 144 h, 6 days, 0-10 μM compound.
Description: as §1, §2

Consider `Cc1cc2[nH]c(C(=O)N(Cc3ccc(-c4c(F)cccc4F)cn3)C3CC(F)(F)C3)cc2nc1N` [Example B3, 5-amino-N-(3,3-difluorocyclobutyl)-N-((5-(2,6-difluorophenyl)pyridin-2-yl)methyl)-6-methyl-1H-pyrrolo[3,2-b]pyridine-2-carboxamide], for which the results for the IC50 in the experiment with HCT116-MTAP-KO and in the experiment with HCT116-mock-RNA-KO were 864 nM and above 10000 nM, respectively.

On to `Cc1cc2[nH]c(C(=O)N(Cc3ccc(-c4ccccc4)cn3)C3CC3)cc2nc1N` [Example B4, 5-amino-N-cyclopropyl-6-methyl-N-((5-phenylpyridin-2-yl)methyl)-1H-pyrrolo[3,2-b]pyridine-2-carboxamide], for which the IC50 is 7820 nM in the experiment with HCT116-MTAP-KO and above 10000 nM in the experiment on HCT116-mock-RNA-KO.

For `Cc1cc2[nH]c(C(=O)N(Cc3ccc(-c4c(F)cccc4F)cn3)CC3CC3)cc2nc1N` [Example B5, 5-amino-N-(cyclopropylmethyl)-N-((5-(2,6-difluorophenyl)pyridin-2-yl)methyl)-6-methyl-1H-pyrrolo[3,2-b]pyridine-2-carboxamide], the IC50 was determined as 606 nM in the experiment on HCT116-MTAP-KO and 3620 nM in the experiment on HCT116-mock-RNA-KO.

Turning to `CO[C@H]1C[C@H](N(Cc2ccc(-c3ccccc3)cn2)C(=O)c2cc3nc(N)c(C)cc3[nH]2)C1` [Example B6, 5-amino-N-((1r,3r)-3-methoxycyclobutyl)-6-methyl-N-((5-phenylpyridin-2-yl)methyl)-1H-pyrrolo[3,2-b]pyridine-2-carboxamide], the IC50 was 1730 nM in the experiment with HCT116-MTAP-KO and above 10000 nM in the experiment on HCT116-mock-RNA-KO.

`CO[C@H]1C[C@@H](N(Cc2ccc(-c3ccccc3)cn2)C(=O)c2cc3nc(N)c(C)cc3[nH]2)C1` [Example B7, 5-amino-N-((1s,3s)-3-methoxycyclobutyl)-6-methyl-N-((5-phenylpyridin-2-yl)methyl)-1H-pyrrolo[3,2-b]pyridine-2-carboxamide]: the concentration for half-maximal inhibition (IC50) with HCT116-MTAP-KO is 2050 nM; with HCT116-mock-RNA-KO it was above 10000 nM.

With `Cc1cc2[nH]c(C(=O)N(Cc3ccc(-c4ccccc4)cn3)C3CCCOC3)cc2nc1N` (stereo not drawn) [Example B8, 5-amino-6-methyl-N-((5-phenylpyridin-2-yl)methyl)-N-(tetrahydro-2H-pyran-3-yl)-1H-pyrrolo[3,2-b]pyridine-2-carboxamide], the IC50 was 1350 nM in the experiment with HCT116-MTAP-KO and above 10000 nM with HCT116-mock-RNA-KO.
